The target of one test is Carbonic anhydrase 1 (Homo sapiens, UniProt P00915). Briefly: Inhibition of human erythrocytes carbonic anhydrase 1 by CO2 hydration assay.
In test [1] the target is T1, Carbonic anhydrase 2 (Homo sapiens, UniProt P00918). In words: Inhibition of human erythrocytes carbonic anhydrase 2 by CO2 hydration assay.
Test [2] has as its target T1, Carbonic anhydrase 2. In words: Binding affinity to human carbonic anhydrase 2.

Chain of Carbonic anhydrase 1 (P00915 whole entry): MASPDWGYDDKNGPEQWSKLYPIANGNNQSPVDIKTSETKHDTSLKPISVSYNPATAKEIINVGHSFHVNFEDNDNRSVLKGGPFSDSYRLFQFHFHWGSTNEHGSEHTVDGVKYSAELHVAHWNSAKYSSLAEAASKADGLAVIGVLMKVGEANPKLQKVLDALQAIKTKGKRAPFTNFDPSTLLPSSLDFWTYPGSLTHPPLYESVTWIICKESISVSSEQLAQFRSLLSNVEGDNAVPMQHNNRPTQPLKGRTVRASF

As to `O=C(O)c1cccc(/C=N/Cc2ccccc2)c1`, the Ki at Carbonic anhydrase 1 and on Carbonic anhydrase 2 [1] was more than 100 µM throughout.
Turning to `Fc1ccccc1CNCc1ccccc1`, the Ki on Carbonic anhydrase 1 and at Carbonic anhydrase 2 [1] was more than 100 µM in each case.
`Fc1ccccc1/C=N/Cc1ccccc1`: the Ki at Carbonic anhydrase 1 and at Carbonic anhydrase 2 [1] was more than 100 µM each time.
Consider `O=C(O)c1cccc(CNCc2ccccc2)c1`, for which the Ki at Carbonic anhydrase 1 and on Carbonic anhydrase 2 [1] was more than 100 µM each time.
As to `Cc1ccc(S(=O)(=O)O)cc1`, at Carbonic anhydrase 2 [2], affinity was put at a Ki of 460 µM.
On Carbonic anhydrase 2 [1], `O=S(=O)(O)c1ccc(/C=N/Cc2ccccc2)o1` registered an inhibition constant (Ki) of more than 100 µM.

Values taken from ChEMBL document CHEMBL1158472, “Carbonic anhydrase-encoded dynamic constitutional libraries: toward the discovery of isozyme-specific inhibitors” (J Med Chem, 2009).
